Data from ChEMBL document CHEMBL1201862, “PubChem BioAssay data set” (2004).
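Assay format: 96-well plates, 48-hour exposure. GI50 = concentration required for 50% inhibition of growth.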 The source made the active and inactive calls. No stated cut-off is given here; in the data, active = GI50 up to about 1.1 µM and inactive = higher.

Experiments:
Test in all cases: NCI tumour cell line growth inhibition, 48 h
U-251 = system: U-251
SN12C = system: SN12C
SK-MEL-5 = system: SK-MEL-5
M14 = system: M14
MOLT-4 = system: MOLT-4
DMS-114 = system: DMS-114
HCC 2998 = system: HCC 2998
SK-MEL-2 = system: SK-MEL-2
RXF 393 = system: RXF 393
IGROV-1 = system: IGROV-1
SW-620 = system: SW-620
SNB-19 = system: SNB-19
SNB-78 = system: SNB-78
OVCAR-8 = system: OVCAR-8
HT-29 = system: HT-29
BT-549 = system: BT-549
NCI/ADR-RES = system: NCI/ADR-RES
MDA-N = system: MDA-N
PC-3 = system: PC-3
Hs-578T = system: Hs-578T

Measured: GI50

COc1ccc(/C(Cl)=C(\C=O)c2ccc([N+](=O)[O-])cc2)cc1
inactive: U-251 10.5 µM | SN12C 12.3 µM | SK-MEL-5 13.2 µM | M14 11.8 µM | MOLT-4 2.42 µM | DMS-114 17.3 µM | HCC 2998 21 µM | SK-MEL-2 6.98 µM | RXF 393 11.5 µM | IGROV-1 22.4 µM | SW-620 4.34 µM | SNB-19 18.5 µM | SNB-78 5.6 µM | OVCAR-8 10.9 µM | HT-29 4.57 µM

CCOC(=O)NC(=O)c1cn(CCOC(=O)NCCCCCCNC(=O)OCCn2cc(C(=O)NC(=O)OCC)c(=O)[nH]c2=O)c(=O)[nH]c1=O
inactive: U-251 > 100 µM | SN12C > 100 µM | SK-MEL-5 > 100 µM | M14 > 100 µM | MOLT-4 > 100 µM | DMS-114 > 100 µM | HCC 2998 > 100 µM | SK-MEL-2 > 100 µM | RXF 393 > 100 µM | IGROV-1 > 100 µM | SW-620 > 100 µM | SNB-19 > 100 µM | SNB-78 > 100 µM | OVCAR-8 > 100 µM | HT-29 > 100 µM

CCCC/C=C1\CCC(CN2CCCCC2)C1=O (stereo not given)
inactive: U-251 29.2 µM | SN12C 11.5 µM | SK-MEL-5 26.6 µM | M14 10.1 µM | MOLT-4 8.38 µM | DMS-114 6.65 µM | HCC 2998 8.67 µM | BT-549 > 100 µM | SK-MEL-2 > 39 µM | RXF 393 10.9 µM | IGROV-1 19.1 µM | SW-620 7.91 µM | NCI/ADR-RES > 100 µM | SNB-19 31.7 µM | SNB-78 4.2 µM | MDA-N > 100 µM | PC-3 > 100 µM | OVCAR-8 12.8 µM | HT-29 10.9 µM | Hs-578T > 100 µM

S=C1SCC2CCCN12 (stereo not given)
inactive: U-251 > 100 µM | SN12C > 100 µM | SK-MEL-5 > 100 µM | M14 > 100 µM | MOLT-4 > 100 µM | DMS-114 > 100 µM | HCC 2998 > 100 µM | SK-MEL-2 > 100 µM | RXF 393 > 100 µM | IGROV-1 > 100 µM | SW-620 > 100 µM | SNB-19 > 100 µM | SNB-78 > 100 µM | OVCAR-8 > 100 µM | HT-29 > 100 µM

CN1CCc2c1nc(-c1ccc(Cl)cc1)c1c2N(C)CC1
inactive: U-251 3.74 µM | SN12C 23.1 µM | SK-MEL-5 10.5 µM | M14 7.71 µM | MOLT-4 6.28 µM | DMS-114 10.8 µM | HCC 2998 19.4 µM | SK-MEL-2 > 100 µM | RXF 393 10.9 µM | IGROV-1 3.06 µM | SW-620 24.4 µM | SNB-19 22.5 µM | SNB-78 28.7 µM | OVCAR-8 25.5 µM | HT-29 4.56 µM

C=C1C(=O)OC2C[C@H](C)C3CC(=O)C(C)=C3CC12 (stereo not given in full)
inactive: U-251 12.4 µM | SN12C 12.1 µM | SK-MEL-5 15.5 µM | M14 12.4 µM | MOLT-4 6.92 µM | DMS-114 15 µM | HCC 2998 15.5 µM | SK-MEL-2 14.2 µM | RXF 393 13.2 µM | IGROV-1 15.4 µM | SW-620 4.81 µM | SNB-19 32.9 µM | SNB-78 16 µM | OVCAR-8 16.8 µM | HT-29 12.5 µM
